Reference: patent publication US10758534B2 (Vertex Pharmaceuticals Incorporated, priority 2014, dated 2020)

target: T1, F508del (Homo sapiens, UniProt P13569, DEL508-508); experiment: Protocol 2: FRET membrane potential optical assay (VIPR), identification of correction compounds; format: cell-based; conditions: not given
T1 construct: expressed in transfected cells
Summary of the method: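 Mouse NIH3T3 cells, stable F508del; cpd 16 hrs, 37° C., serum-free; pos ctrl 27° C. 16 hrs. Rinse in Krebs Ringers, dye load, then add 10 μM forskolin + 20 μM genistein with Cl^−-free (gluconate) medium; depolarization by FRET voltage dyes.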

T1 sequence (P13569 with tags, fused parts or gaps DEL508-508): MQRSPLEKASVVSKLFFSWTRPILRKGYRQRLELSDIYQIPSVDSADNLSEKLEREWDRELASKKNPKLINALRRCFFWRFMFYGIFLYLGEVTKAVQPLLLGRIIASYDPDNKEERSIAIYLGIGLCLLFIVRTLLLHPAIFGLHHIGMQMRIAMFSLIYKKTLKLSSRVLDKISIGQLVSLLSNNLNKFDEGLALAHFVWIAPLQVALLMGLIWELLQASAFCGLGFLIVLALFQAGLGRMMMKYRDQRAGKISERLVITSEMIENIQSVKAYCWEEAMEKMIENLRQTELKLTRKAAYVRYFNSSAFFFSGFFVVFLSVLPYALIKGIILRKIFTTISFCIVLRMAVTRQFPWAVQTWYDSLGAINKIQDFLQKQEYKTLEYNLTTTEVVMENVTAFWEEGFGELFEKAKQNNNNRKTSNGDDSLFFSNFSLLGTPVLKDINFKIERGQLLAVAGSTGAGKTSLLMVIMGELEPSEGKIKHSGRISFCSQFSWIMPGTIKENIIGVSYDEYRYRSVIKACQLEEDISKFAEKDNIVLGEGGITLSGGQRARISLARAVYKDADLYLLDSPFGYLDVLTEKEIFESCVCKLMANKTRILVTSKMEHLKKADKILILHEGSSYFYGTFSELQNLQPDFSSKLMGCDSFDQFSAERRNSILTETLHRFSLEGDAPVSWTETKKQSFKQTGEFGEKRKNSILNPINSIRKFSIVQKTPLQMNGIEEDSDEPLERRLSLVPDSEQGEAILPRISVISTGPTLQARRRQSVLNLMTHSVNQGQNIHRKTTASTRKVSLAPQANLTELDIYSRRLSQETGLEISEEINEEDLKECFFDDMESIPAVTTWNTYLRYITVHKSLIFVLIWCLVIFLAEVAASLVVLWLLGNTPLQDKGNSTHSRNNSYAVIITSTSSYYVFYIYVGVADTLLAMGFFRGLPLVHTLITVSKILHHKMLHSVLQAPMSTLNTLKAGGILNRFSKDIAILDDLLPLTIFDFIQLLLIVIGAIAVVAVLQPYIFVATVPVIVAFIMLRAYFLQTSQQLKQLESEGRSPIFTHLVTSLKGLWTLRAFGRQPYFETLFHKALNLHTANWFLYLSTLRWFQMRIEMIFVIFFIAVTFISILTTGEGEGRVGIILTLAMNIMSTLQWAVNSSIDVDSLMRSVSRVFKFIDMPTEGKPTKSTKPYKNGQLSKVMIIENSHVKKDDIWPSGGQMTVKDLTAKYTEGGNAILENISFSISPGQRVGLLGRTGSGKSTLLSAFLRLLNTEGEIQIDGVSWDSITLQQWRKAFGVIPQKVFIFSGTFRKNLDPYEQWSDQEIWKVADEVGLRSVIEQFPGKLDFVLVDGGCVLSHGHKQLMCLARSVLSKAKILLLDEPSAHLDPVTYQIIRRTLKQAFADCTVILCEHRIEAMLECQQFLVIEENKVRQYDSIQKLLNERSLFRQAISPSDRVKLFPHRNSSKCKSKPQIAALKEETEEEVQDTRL

Structure (SMILES)	EC30 [nM]
[2H]C1([2H])[C@@H](C)CC(C)(C)N1c1nc(-c2cc(F)cc(OCC(C)C)c2)ccc1C(=O)NS(=O)(=O)c1ccccc1 [Compound 2560, N-(benzenesulfonyl)-2-[(3S)-2,2-dideuterio-3,5,5-trimethyl-pyrrolidin-1-yl]-6-(3-fluoro-5-isobutoxy-phenyl)pyridine-3-carboxamide]	< 3000

same assay, conditions: F508del CFTR modulator activity; compounds of Table 1; read-out: EC30

Structure (SMILES)	EC30 [nM]
COc1cc(Cl)cc(-c2cnc(N3CC(C)CC3(C)C)c(C(=O)NS(=O)(=O)c3cccc(N)n3)c2)c1 (stereo not shown) [Compound 2545, N-[(6-amino-2-pyridyl)sulfonyl]-5-(3-chloro-5-methoxy-phenyl)-2-(2,2,4-trimethylpyrrolidin-1-yl)pyridine-3-carboxamide]	< 3000
CC(C)Oc1cccc(-c2ccc(C(=O)NS(=O)(=O)c3ccc[nH]c3=O)c(N3C[C@@H](C)CC3(C)C)n2)c1 [Compound 2549, 6-(3-isopropoxyphenyl)-N-[(2-oxo-1H-pyridin-3-yl)sulfonyl]-2-[(4S)-2,2,4-trimethylpyrrolidin-1-yl]pyridine-3-carboxamide]	< 3000
C[C@@H]1CN(c2nc(CCC3CC3)ccc2C(=O)NS(=O)(=O)c2cccnc2N)C(C)(C)C1 [Compound 2553, N-[(2-amino-3-pyridyl)sulfonyl]-6-(2-cyclopropylethyl)-2-[(4S)-2,2,4-trimethylpyrrolidin-1-yl]pyridine-3-carboxamide]	< 3000
C[C@@H]1CN(c2nc(-n3ccc(OCC(C)(C)C)n3)ccc2C(=O)NS(=O)(=O)C2CC2)C(C)(C)C1 [Compound 2554, N-cyclopropylsulfonyl-6-[3-(2,2-dimethylpropoxy)pyrazol-1-yl]-2-[(4S)-2,2,4-trimethylpyrrolidin-1-yl]pyridine-3-carboxamide]	< 3000
Cc1cc(-c2ccc(C(=O)NS(=O)(=O)c3ccc[nH]c3=O)c(N3C[C@@H](C)CC3(C)C)n2)cc(C)c1O [Compound 2556, 6-(4-hydroxy-3,5-dimethyl-phenyl)-N-[(2-oxo-1H-pyridin-3-yl)sulfonyl]-2-[(4S)-2,2,4-trimethylpyrrolidin-1-yl]pyridine-3-carboxamide]	3000 to 10000
Cc1cc(OCC(C)C)cc(-c2cnc(N3CC(C)CC3(C)C)c(C(=O)NS(=O)(=O)c3cccc(N)n3)c2)c1 (stereo not shown) [Compound 2558, N-[(6-amino-2-pyridyl)sulfonyl]-5-(3-isobutoxy-5-methyl-phenyl)-2-(2,2,4-trimethylpyrrolidin-1-yl)pyridine-3-carboxamide]	< 3000
C[C@@H]1CN(c2nc(-c3ccc(F)c(F)c3)ccc2C(=O)NS(=O)(=O)c2cccc(N)n2)C(C)(C)C1 [Compound 2559, N-[(6-amino-2-pyridyl)sulfonyl]-6-(3,4-difluorophenyl)-2-[(4S)-2,2,4-trimethylpyrrolidin-1-yl]pyridine-3-carboxamide]	< 3000
COc1ncc(-c2ccc(C(=O)NS(=O)(=O)c3cccnc3N)c(N3C[C@@H](C)CC3(C)C)n2)cc1C [Compound 2564, N-[(2-amino-3-pyridyl)sulfonyl]-6-(6-methoxy-5-methyl-3-pyridyl)-2-[(4S)-2,2,4-trimethylpyrrolidin-1-yl]pyridine-3-carboxamide]	< 3000
COc1ccc(-c2ccc(C(=O)NS(=O)(=O)c3ccc[nH]c3=O)c(N3C[C@@H](C)CC3(C)C)n2)c(F)c1F [Compound 2567, 6-(2,3-difluoro-4-methoxy-phenyl)-N-[(2-oxo-1H-pyridin-3-yl)sulfonyl]-2-[(4S)-2,2,4-trimethylpyrrolidin-1-yl]pyridine-3-carboxamide]	< 3000

More lines, now with the values ahead:

EC30 [nM]	Structure (SMILES)
< 3000	CC1CN(c2ncccc2C(=O)NS(=O)(=O)c2cccc(Nc3ccc(-c4cnco4)cc3)n2)C(C)(C)C1 (stereo not shown) [Compound 2546, N—[[6-(4-oxazol-5-ylanilino)-2-pyridyl]sulfonyl]-2-(2,2,4-trimethylpyrrolidin-1-yl)pyridine-3-carboxamide]
< 3000	CC1CN(c2ncc(-c3ccc(C(C)(C)O)cc3)cc2C(=O)NS(=O)(=O)c2cccc(N)n2)C(C)(C)C1 (stereo not shown) [Compound 2547, N-[(6-amino-2-pyridyl)sulfonyl]-5-[4-(1-hydroxy-1-methyl-ethyl)phenyl]-2-(2,2,4-trimethylpyrrolidin-1-yl)pyridine-3-carboxamide]
< 3000	Cc1ccc2nc(N3C[C@@H](C)CC3(C)C)c(C(=O)NS(=O)(=O)c3cccc(N)n3)cc2c1 [Compound 2548, N-[(6-amino-2-pyridyl)sulfonyl]-6-methyl-2-[(4S)-2,2,4-trimethylpyrrolidin-1-yl]quinoline-3-carboxamide]
3000 to 10000	Cc1ccn(CCCNc2cccc(S(=O)(=O)NC(=O)c3cccnc3N3CC(C)CC3(C)C)n2)n1 (stereo not shown) [Compound 2550, N—[[6-[3-(3-methylpyrazol-1-yl)propylamino]-2-pyridyl]sulfonyl]-2-(2,2,4-trimethylpyrrolidin-1-yl)pyridine-3-carboxamide]
< 3000	COc1cccc(Oc2cccc(S(=O)(=O)NC(=O)c3cccnc3N3CC(C)CC3(C)C)n2)c1 (stereo not shown) [Compound 2551, N—[[6-(3-methoxyphenoxy)-2-pyridyl]sulfonyl]-2-(2,2,4-trimethylpyrrolidin-1-yl)pyridine-3-carboxamide]
< 3000	C[C@@H]1CN(c2nc(-c3ccccc3O)ccc2C(=O)NS(=O)(=O)c2cccc(N)n2)C(C)(C)C1 [Compound 2555, N-[(6-amino-2-pyridyl)sulfonyl]-6-(2-hydroxyphenyl)-2-[(4S)-2,2,4-trimethylpyrrolidin-1-yl]pyridine-3-carboxamide]
< 3000	CCOc1ccccc1-c1cnc(N2CC(C)CC2(C)C)c(C(=O)NS(=O)(=O)c2cccc(N)n2)c1 (stereo not shown) [Compound 2557, N-[(6-amino-2-pyridyl)sulfonyl]-5-(2-ethoxyphenyl)-2-(2,2,4-trimethylpyrrolidin-1-yl)pyridine-3-carboxamide]
< 3000	CC1CN(c2ncccc2C(=O)NS(=O)(=O)c2cccc(N3CCCC3)n2)C(C)(C)C1 (stereo not shown) [Compound 2561, N-[(6-pyrrolidin-1-yl-2-pyridyl)sulfonyl]-2-(2,2,4-trimethylpyrrolidin-1-yl)pyridine-3-carboxamide]
< 3000	COc1cccc(-c2ccc(C(=O)NS(=O)(=O)c3cccnc3N)c(N3C[C@@H](C)CC3(C)C)n2)c1F [Compound 2562, N-[(2-amino-3-pyridyl)sulfonyl]-6-(2-fluoro-3-methoxy-phenyl)-2-[(4S)-2,2,4-trimethylpyrrolidin-1-yl]pyridine-3-carboxamide]
< 3000	CC1CN(c2ncccc2C(=O)NS(=O)(=O)c2cccc(Oc3ccc(-n4cccc4)cc3)n2)C(C)(C)C1 (stereo not shown) [Compound 2563, N—[[6-(4-pyrrol-1-ylphenoxy)-2-pyridyl]sulfonyl]-2-(2,2,4-trimethylpyrrolidin-1-yl)pyridine-3-carboxamide]
3000 to 10000	CCC(CC)N1CCN(c2cccc(S(=O)(=O)NC(=O)c3cccnc3N3CC(C)CC3(C)C)n2)CC1 (stereo not shown) [Compound 2565, N—[[6-[4-(1-ethylpropyl)piperazin-1-yl]-2-pyridyl]sulfonyl]-2-(2,2,4-trimethylpyrrolidin-1-yl)pyridine-3-carboxamide]
< 3000	C[C@@H]1CN(c2nc(-c3cccc(F)c3)ccc2C(=O)NS(=O)(=O)c2cccc(N)n2)C(C)(C)C1 [Compound 2566, N-[(6-amino-2-pyridyl)sulfonyl]-6-(3-fluorophenyl)-2-[(4S)-2,2,4-trimethylpyrrolidin-1-yl]pyridine-3-carboxamide]
